Test results published in US20250215021A1, “SYSTEMS AND METHODS UTILIZING THERANOSTIC AGENTS FOR BPCT AND BNCT FOR TARGETED CANCER TREATMENT” (University of Virginia Patent Foundation, priority 2022, published 2025).

System: MCF-10A epithelial cells
Assay: Cell uptake in MCF-10A (normal cell control)
Format: cell-based
Conditions: all concentrations tested
Experimental: Referring now to FIGS. 6A-6B, after confirming the structure and purity of the compound, further biological evaluation was performed. Preferential cancer cell uptake was evaluated in human breast cancer cells MCF-7 compared with MCF-10A epithelial cells. […] The cancer cell uptake was also confirmed by confocal microscopy. The concentration and constitutional stability of the compound in cancer cells was established by lysing the MCF-7 incubated with 5 μM of compound for 4 hrs. […] Inherent toxicity of the compound to both normal and cancer cells was evaluated using HMCD and 1-amino-1-carbadodecaborate as controls.

## CC1(C)C(/C=C/C2=C(Cl)C(=C/C=C3/N(CCCCCC(=O)O)c4ccccc4C3(C)C)/CCC2)=[N+](CCCCS(=O)(=O)[O-])c2ccccc21 [parent HMCD]
  uptake in MCF-10A cells: no or poor uptake
